Reference: ChEMBL document CHEMBL1143894, “Synthetic derivatives of the alpha- and beta-amyrin triterpenes and their antinociceptive properties” (2008)

What was measured:
Mus musculus [1] = assay: Antinociceptive effect in sc dosed Swiss mouse assessed as inhibition of acetic acid-induced visceral pain; assay type: functional; conditions: read-out: ID50 (the source's name)
Mus musculus [2] = assay: Antinociceptive effect in Swiss mouse assessed as inhibition of acetic acid-induced visceral pain at 0.0001 to 30 mg/kg, ip relative to morphine; assay type: functional; conditions: dose mg/kg 0.0001-30; route intraperitoneal

Structure (SMILES)	ED50 (Mus musculus [1]) [mg/kg]	Inhibition (Mus musculus [2]) [%]
CC(=O)Oc1ccccc1C(=O)O [ASPIRIN]	24	83
CN1CC[C@]23c4c5ccc(O)c4O[C@H]2[C@@H](O)C=C[C@H]3[C@H]1C5 [MORPHINE]	0.67	
